Laboratory results as given in the NIST ThermoML archive (doi:10.1016/j.fluid.2010.09.023).
Numbers after ± are expanded uncertainties. Values belong to the compound of their own block, whether it stands above or below them.

Conditions: Liquid
[1] = 312.59 K, Closed cell (Static) method

vapor or sublimation pressure [1]: 448.3 ± 3.2 kPa
SMILES: C=CCC [1-butene]

SMILES: CCC#N [propanenitrile]
vapor or sublimation pressure (307.78 K, Closed cell (Static) method): 9.47 ± 2.8 kPa
vapor or sublimation pressure (312.5 K, Closed cell (Static) method): 11.9 ± 2.8 kPa
vapor or sublimation pressure (312.58 K, Closed cell (Static) method): 11.9 ± 2.8 kPa
vapor or sublimation pressure (313.15 K, Closed cell (Static) method): 12.5 ± 2.8 kPa
vapor or sublimation pressure (313.15 K, Ebulliometric method (Recirculating still)): 12.72 ± 0.29 kPa
vapor or sublimation pressure (322 K, Closed cell (Static) method): 17.4 ± 2.8 kPa
vapor or sublimation pressure (339.57 K, Ebulliometric method (Recirculating still)): 36.51 ± 0.3 kPa
vapor or sublimation pressure (353.83 K, Ebulliometric method (Recirculating still)): 60.04 ± 0.33 kPa
vapor or sublimation pressure (358.33 K, Closed cell (Static) method): 69.6 ± 2.8 kPa
vapor or sublimation pressure (358.37 K, Ebulliometric method (Recirculating still)): 69.81 ± 0.36 kPa
vapor or sublimation pressure (364.8 K, Ebulliometric method (Recirculating still)): 85.5 ± 0.39 kPa
vapor or sublimation pressure (370.9 K, Ebulliometric method (Recirculating still)): 103.12 ± 0.4 kPa

vapor or sublimation pressure [1]: 467.1 ± 3.2 kPa
SMILES: C=C(C)C [2-methylpropene]

vapor or sublimation pressure (312.83 K, Ebulliometric method (Recirculating still)): 30.95 ± 0.33 kPa
vapor or sublimation pressure (312.84 K, Closed cell (Static) method): 31.9 ± 2.8 kPa
vapor or sublimation pressure (330.44 K, Ebulliometric method (Recirculating still)): 60.25 ± 0.34 kPa
vapor or sublimation pressure (338.77 K, Ebulliometric method (Recirculating still)): 80.14 ± 0.38 kPa
vapor or sublimation pressure (343.01 K, Ebulliometric method (Recirculating still)): 92 ± 0.42 kPa
vapor or sublimation pressure (346.26 K, Ebulliometric method (Recirculating still)): 102.08 ± 0.43 kPa
vapor or sublimation pressure (358.31 K, Closed cell (Static) method): 147.9 ± 2.8 kPa
SMILES: CCOC(C)(C)C [2-ethoxy-2-methylpropane]

vapor or sublimation pressure (322.01 K, Closed cell (Static) method): 479.5 ± 3.2 kPa
SMILES: CCCC [butane]

vapor or sublimation pressure (307.79 K, Closed cell (Static) method): 460.8 ± 3.2 kPa
SMILES: CC(C)C [2-methylpropane]
